Laboratory results taken from US7138246B2, “Methods for identifying or screening for agents that modulate 17β-HSD3” (Bristol-Myers Squibb Company, priority 2004, dated 2006).
Where two headings read alike, the source gives them in different places.

What was measured:
17β-HSD3 [1] = target: T1, 17β-HSD3 (Homo sapiens, UniProt P37058); test: 17β-HSD3 SEAP assay (PSA reporter) in MDA MB 453/17β-HSD3 cells; type: cell-based; design: expressed in transfected cells
T1 sequence (P37058 1-310): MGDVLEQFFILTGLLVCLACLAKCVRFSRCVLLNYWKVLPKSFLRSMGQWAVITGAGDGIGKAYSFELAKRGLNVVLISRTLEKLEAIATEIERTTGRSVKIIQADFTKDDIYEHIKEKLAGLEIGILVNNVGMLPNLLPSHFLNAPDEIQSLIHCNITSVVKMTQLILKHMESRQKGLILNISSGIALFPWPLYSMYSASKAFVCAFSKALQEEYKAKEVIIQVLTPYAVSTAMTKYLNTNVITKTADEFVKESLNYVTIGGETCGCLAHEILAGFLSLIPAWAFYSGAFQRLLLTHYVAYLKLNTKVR
Procedure: Cultured MDA MB 453/17β-HSD3 cells were trypsinized, spun at 1000 rpm for 10 minutes, and resuspended in DMEM/10% cFBS supplemented with 5 mM BES at a concentration of 4×10^7 cells per mL. The cells (aliquots of 1×10^7 cells) were then transiently transfected with 3 μg of the PSA-SEAP construct by electroporation at 0.22 kVolts and 960 μFD with a time constant of […]. After a short recovery period, the cells were spun down and resuspended in DMEM/10% cFBS and plated into 96-well tissue culture plates (5×10^5 cells per well in 50 μL). After overnight adherence, the compounds were diluted in DMEM/10% and cFBS was added to the cells. 24 hours later, the medium was removed, fresh media containing the compounds was added in the presence of 10 nM Androstenedione, and this mixture was allowed to incubate for 24 hours. 25 μL of the culture supernatant was then removed and plated into 96-well black Optiplates (Perkin Elmer) for SEAP measurement as described by the reagent manufacturer (Tropix). Briefly, the supernatant was heat inactivated at 65° C. for 30 minutes and then allowed to cool to room temperature. Assay buffer (25 μL, Tropix) was then added and allowed to mix for 5 minutes followed by the addition of the Reaction buffer (25 μL, Tropix) and the plates were then incubated for 20 minutes in the dark. Plates were then read using a Packard Instruments TopCount with luminescent detection and signal was captured for 10 seconds per well and photon emission (cps) was averaged. A standard MTS assay (Promega) as described by the manufacturer, was performed in parallel to normalize the data based on cell numbers. Data analysis including percent inhibition and IC50 determination, based on 10 point serially diluted curves in duplicate, was then performed using Microsoft Excel and XLFit.
The analysis of 17β-HSD3 steroid conversion by TLC is hampered by the limitation to examine large numbers of compounds. […] To test this system, a prostate specific antigen (PSA) reporter plasmid was transfected into MDA-MB453 cells stably expressing 17β-HSD3 and stimulated with different concentrations of androstenedione (FIG. 5B).
To evaluate the suitability of this cellular assay for monitoring 17β-HSD3 cell based activity, the inhibitory effects of 18β-glycyrrhetinic acid and […] were examined.

17β-HSD3 [2] = target: T1, 17β-HSD3; design: made in house; CHAPS-solubilised 100,000 x g supernatant; details: read-out: Km for androstenedione, previously published value; human 17β-HSD3 prepared from testes microsomal fractionation; cited from earlier work
17β-HSD3 [3] = target: T1, 17β-HSD3; test: 17β-HSD3 scintillation proximity assay (SPA); type: biochemical; design: made in house; CHAPS-solubilised 100,000 x g supernatant
Procedure: (§1) HEK293/17β-HSD3 cells were harvested by scraping or treatment with Cell Dissociation Buffer (Invitrogen) and collected in ice cold Phosphate Buffered Saline (PBS) containing a protease inhibitor cocktail (Complete Tabs, Roche Diagnostics). The cells were then pelleted by centrifugation at 1000 rpm and washed once more in the same buffer. The cells were then resuspended in 2× the cell pellet volume with ice cold lysis buffer (40 mM Tris-HCl pH7.5, 2 mM DTT, 1 mM EDTA, 10% Glycerol (v/v), 0.5% CHAPS (w/v), 1M 1-(3-sulfopropyl)pyridinium hydroxide, Complete Tab(s)) and dounce homogenized on ice. The crude lysate was then incubated on ice for 60 minutes to allow for membrane protein solubilization, followed by centrifugation at 100,000×g for 60 minutes at 4° C. The supernatant was then removed and dialyzed overnight at 4° C. against the enzyme storage buffer (40 mM Tris-HCl pH 7.5, 40 mM KCl, 2 mM DTT, 1 mM EDTA, 20% Glycerol (v/v), Complete Tab(s)). Protein concentration was determined by the Bradford assay, the enzyme was aliquotted, and stored at −80° C. Activity was assessed using the SPA described below.
SPA beads conjugated to anti-mouse IgG were incubated overnight in SPA Bead Buffer (50 mM Tris pH 8.0, 10% Glycerol (v/v)), with anti-Testosterone monoclonal antibody (2 μg antibody per 1 mg of SPA beads) under gentle rotation. The antibody saturated bead complex was then spun down at 500 rpm for 10 minutes at 4° C. and the beads were resuspended in SPA Bead Buffer at a final concentration of 0.5 mg/160 μL. The anti-T/SPA Beads were then stored at 4° C. until needed. Enzymatic assays were conducted in 30 μL total reaction volumes in 96-well white Optiplates (Perkin Elmer). The reaction buffer consisted of 50 mM MES pH 6.0, 2 mM DTT, 0.1% CHAPS, 3 mM NADPH, 10% Glycerol (v/v), 850 nM 4-Androstene-3,17-Dione, and 50 nM [3H]4-Androstene-3,17-Dione (Specific Activity 70–110Ci/mmol). Compounds were diluted such that the final concentration of ethanol and DMSO would not exceed 3% (v/v) and 1% (v/v) respectively, corresponding to concentrations that had little or no effect on enzymatic activity (data not shown). Previously prepared and frozen 17β-HSD3 enzyme was diluted into ice cold buffer containing 50 mM Mes, 40 mM KCl, 2 mM DTT, 1 mM EDTA, and 10% glycerol (v/v) and added last to the reaction mixture. The reaction was allowed to proceed for 60 minutes at room temperature and was stopped by the addition of 10 μL of 0.1N HCl. After the reactions were stopped, an excess of the anti-T/SPA Beads (0.5 mg) were added to each well to a final volume of 200 μL. The plates were sealed and shaken at ˜200 rpm on an orbital shaker at room temp for at least 90 minutes or overnight at 4° C. After allowing the beads to settle, the amount of [3H]Testosterone produced in each well was determined by scintillation counting on a Perkin Elmer TopCount instrument and collected as DPMs. The data was then analyzed and percent inhibition and/or IC50 values, based on 10 point serially diluted curves in duplicate or triplicate, were calculated using Microsoft Excel and XLFit programs. […] Input samples and unbound supernatants, from the enzymatic reactions, were quantitated by scintillation counting to aid in the calculation of bound versus free testosterone produced. Km values were calculated using the Lineweaver-Burke formula and plots where 1/v=(Km+[s])/(Vmax [s]). […]

[4] = substrate: C[C@]12CCC(=O)C=C1CC[C@@H]1[C@@H]2CC[C@]2(C)C(=O)CC[C@@H]12; test: 17β-HSD3 scintillation proximity assay (SPA); type: biochemical, human; details: other: 17β-HSD3 from HEK293 transfectants; 0.01 to 10 μM input androstenedione; 3 mM NADPH
Procedure: as §1, with “The crude lysate was then incubated on ice for 60 minutes to allow for membrane protein solubilization, followed by centrifugation at 100,000×g for 60 minutes at 4° C. The supernatant was then removed and dialyzed overnight at 4° C. against the enzyme storage buffer (40 mM Tris-HCl pH 7.5, 40 mM KCl, 2 mM DTT, 1 mM EDTA, 20% Glycerol (v/v), Complete Tab(s)).” left out
SPA beads conjugated to anti-mouse IgG were incubated overnight in SPA Bead Buffer (50 mM Tris pH 8.0, 10% Glycerol (v/v)), with anti-Testosterone monoclonal antibody (2 μg antibody per 1 mg of SPA beads) under gentle rotation. […] After allowing the beads to settle, the amount of [3H]Testosterone produced in each well was determined by scintillation counting on a Perkin Elmer TopCount instrument and collected as DPMs. The data was then analyzed and percent inhibition and/or IC50 values, based on 10 point serially diluted curves in duplicate or triplicate, were calculated using Microsoft Excel and XLFit programs. […]

## C[C@]12CCC(=O)C=C1CC[C@@H]1[C@@H]2CC[C@]2(C)C(=O)CC[C@@H]12 [androstenedione]
17β-HSD3 [1]
  induction of PSA reporter: 9 fold
17β-HSD3 [1]; 12 nM androstenedione, 17β-HSD3-MDA-MB453 transfectants
  activation of PSA reporter: 9 fold
17β-HSD3 [1]; 1 μM androstenedione, 17β-HSD3-MDA-MB453 cells
  induction of PSA reporter: 25 fold
17β-HSD3 [2]
  Km: 0.72 µM

## CC(C)(O)C(=O)Nc1ccc([N+](=O)[O-])c(C(F)(F)F)c1 [hydroxyflutamide]
17β-HSD3 [3]; FIG. 3B
  17β-HSD3 inhibitory activity in the SPA: did not display 17β-HSD3 inhibitory activity

## NC(=O)C1=CN([C@@H]2O[C@H](COP(=O)(O)OP(=O)(O)OC[C@H]3O[C@@H](n4cnc5c(N)ncnc54)[C@H](OP(=O)(O)O)[C@@H]3O)[C@@H](O)[C@H]2O)C=CC1 [NADPH]
17β-HSD3 [3]; Lineweaver-Burke plots, read-out: Km for NADPH
  Km: 30 µM

B1: human 17β-HSD3 (Homo sapiens) (protein)
chain: T1 sequence (P37058 1-310)
notes: made in house; CHAPS-solubilised 100,000 x g supernatant
[4]
  Km: 0.92 µM
